DC50 data for 15 compounds are collected here from US12077555B2, “STAT degraders and uses thereof” (Kymera Therapeutics, Inc., priority 2019, dated 2024).

STAT3, sequence (P40763 whole entry): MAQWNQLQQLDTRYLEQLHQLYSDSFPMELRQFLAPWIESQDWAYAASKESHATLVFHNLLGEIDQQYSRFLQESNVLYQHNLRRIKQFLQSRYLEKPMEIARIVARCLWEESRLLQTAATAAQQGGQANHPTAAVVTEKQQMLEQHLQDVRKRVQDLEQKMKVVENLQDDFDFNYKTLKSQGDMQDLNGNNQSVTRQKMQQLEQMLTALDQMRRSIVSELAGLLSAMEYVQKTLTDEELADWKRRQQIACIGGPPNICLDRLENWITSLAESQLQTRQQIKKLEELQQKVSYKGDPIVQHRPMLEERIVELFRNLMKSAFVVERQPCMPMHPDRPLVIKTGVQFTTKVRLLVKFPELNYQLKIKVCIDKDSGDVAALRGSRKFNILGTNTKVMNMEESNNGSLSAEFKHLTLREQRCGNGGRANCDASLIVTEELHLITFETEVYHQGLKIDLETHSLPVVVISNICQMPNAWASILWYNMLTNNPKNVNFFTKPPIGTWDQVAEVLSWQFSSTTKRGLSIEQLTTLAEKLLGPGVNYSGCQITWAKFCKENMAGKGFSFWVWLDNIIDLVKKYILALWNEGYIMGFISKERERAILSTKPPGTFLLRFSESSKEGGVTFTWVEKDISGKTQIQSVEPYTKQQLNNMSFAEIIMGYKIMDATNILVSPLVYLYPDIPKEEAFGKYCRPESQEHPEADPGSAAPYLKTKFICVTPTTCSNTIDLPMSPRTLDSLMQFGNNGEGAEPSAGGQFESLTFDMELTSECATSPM

One experiment concerns the target STAT3 (Homo sapiens, UniProt P40763). As to the kind of experiment: STAT3 HiBiT degradation assay in transfected A549 cells. Also noted: expressed in transfected cells; host or cells: A549. Format: cell-based. As to conditions: A549, 24 h; read-out: STAT3 HiBiT A549 degradation 24 h: Average external-Abs DC50. The procedure, abridged:
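Degradation read as HiBiT-tagged STAT3 luminescence (Nano-Glo lytic reagent, 10 min, room temperature) following 24 h compound treatment of transfected A549 cells at 3-fold, 10 points. Percent remaining signal computed against controls and fitted with a four-parameter logistic; DC50 reported as letter bins (A <0.01 to D >1.0 µM).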
On to `Cc1ncsc1-c1ccc([C@H](C)NC(=O)[C@@H]2C[C@@H](O)CN2C(=O)[C@@H](NC(=O)CCCCCc2cccc(OC[C@H](CCC(N)=O)NC(=O)[C@@H]3Cc4cccc5c4N3C(=O)[C@@H](NC(=O)c3cc4cc(C(=O)P(=O)(O)O)ccc4[nH]3)CC5)c2F)C(C)(C)C)cc1` [Compound I-217, 2-[[(2S,11S)-2-[[(2S)-4-carbamoyl-1-[2-fluoro-3-(5-[[(2S)-1-[(2S,4R)-4-hydroxy-2-[[(1S)-1-[4-(4-methyl-1,3-thiazol-5-yl)phenyl]ethyl]carbamoyl]pyrrolidin-1-yl]-3,3-dimethyl-1-oxobutan-2-yl]carbamoyl]pentyl)phenoxy]butan-2-yl]carbamoyl]-12-oxo-1-azatricyclo[6.4.1.0^[4,13]]trideca-4(13),5,7-trien-11-yl]carbamoyl]-1H-indole-5-carbonylphosphonic acid], for which the DC50 was less than 10 nM.

As for `Cn1c(=O)n(C2CCC(=O)NC2=O)c2ccc([C@H]3CC[C@H](CCC(=O)N4CC[C@H]5CC[C@@H](C(=O)N[C@@H](CCC(N)=O)C(=O)NC(c6ccccc6)c6ccccc6)N5C(=O)[C@@H](NC(=O)c5cc6cc(C(=O)P(=O)(O)O)ccc6[nH]5)C4)CC3)cc21` (stereo partly drawn) [Compound I-278, 2-[[(5S,8S,10aR)-8-[[(1S)-3-carbamoyl-1-(diphenylmethylcarbamoyl)propyl]carbamoyl]-6-oxo-3-[3-[(1r,4r)-4-[1-(2,6-dioxopiperidin-3-yl)-3-methyl-2-oxo-1,3-benzodiazol-5-yl]cyclohexyl]propanoyl]-octahydropyrrolo[1,2-a][1,5]diazocin-5-yl]carbamoyl]-1H-indole-5-carbonylphosphonic acid], the DC50 is 100 to 1000 nM.

`Cc1ncsc1-c1ccc(CNC(=O)[C@@H]2C[C@@H](O)CN2C(=O)[C@@H](NC(=O)CCC/C=C/c2ccc(CO[C@H](C)[C@H](CCC(N)=O)NC(=O)[C@@H]3Cc4cccc5c4N3C(=O)[C@@H](NC(=O)c3cc4cc(C(=O)P(=O)(O)O)ccc4[nH]3)CC5)cc2)C(C)(C)C)cc1` [Compound I-129, diammonium 2-[[(2S,11S)-2-[[(3S,4R)-1-carbamoyl-4-([4-[(1E)-5-[[(2S)-1-[(2S,4R)-4-hydroxy-2-([[4-(4-methyl-1,3-thiazol-5-yl)phenyl]methyl]carbamoyl)pyrrolidin-1-yl]-3,3-dimethyl-1-oxobutan-2-yl]carbamoyl]pent-1-en-l-yl]phenyl]methoxy)pentan-3-yl]carbamoyl]-12-oxo-1-azatricyclo[6.4.1.0^[4,13]]trideca-4(13),5,7-trien-11-yl]carbamoyl]-1H-indole-5-carbonylphosphonate]: the DC50 is 100 to 1000 nM.

Consider `Cc1ncsc1-c1ccc(CNC(=O)[C@@H]2C[C@@H](O)CN2C(=O)[C@@H](NC(=O)CC2CC(Cc3ccc(CO[C@H](C)[C@H](CCC(N)=O)NC(=O)[C@@H]4Cc5cccc6c5N4C(=O)[C@@H](NC(=O)c4cc5cc(C(=O)P(=O)(O)O)ccc5[nH]4)CC6)cc3)C2)C(C)(C)C)cc1` (stereo partly drawn) [Compound I-163], for which the DC50 is more than 1000 nM.

Take `Cc1ncsc1-c1ccc(CNC(=O)[C@@H]2C[C@@H](O)CN2C(=O)[C@@H](NC(=O)CCCc2cccc3cc(CO[C@H](C)[C@H](CCC(N)=O)NC(=O)[C@@H]4Cc5cccc6c5N4C(=O)[C@@H](NC(=O)c4cc5cc(C(=O)P(=O)(O)O)ccc5[nH]4)CC6)ccc23)C(C)(C)C)cc1` [Compound I-133, diammonium 2-[[(2S,11S)-2-[[(3S,4R)-1-carbamoyl-4-[[5-(3-[[(2S)-1-[(2S,4R)-4-hydroxy-2-([[4-(4-methyl-1,3-thiazol-5-yl)phenyl]methyl]carbamoyl)pyrrolidin-1-yl]-3,3-dimethyl-1-oxobutan-2-yl]carbamoyl]propyl)naphthalen-2-yl]methoxy]pentan-3-yl]carbamoyl]-12-oxo-1-azatricyclo[6.4.1.0^[4,13]]trideca-4(13),5,7-trien-11-yl]carbamoyl]-1H-indole-5-carbonylphosphonate]: the DC50 lay in the range of 100 to 1000 nM.

As to `Cn1c(=O)n(C2CCC(=O)NC2=O)c2ccc(CC3CCC(Cc4cc5c6c(c4)C[C@@H](C(=O)N[C@@H](CCC(N)=O)C(=O)NC(c4ccccc4)c4ccccc4)N6C(=O)[C@@H](NC(=O)c4cc6cc(C(=O)P(=O)(O)O)ccc6[nH]4)CC5)CC3)cc21` (stereo partly drawn) [Compound I-245, 2-[[(2S,11S)-2-[[(1S)-3-carbamoyl-1-(diphenylmethylcarbamoyl)propyl]carbamoyl]-6-[(4-[[1-(2,6-dioxopiperidin-3-yl)-3-methyl-2-oxo-1,3-benzodiazol-5-yl]methyl]cyclohexyl)methyl]-12-oxo-1-azatricyclo[6.4.1.0^[4,13]]trideca-4(13),5,7-trien-11-yl]carbamoyl]-1H-indole-5-carbonylphosphonic acid], the DC50 lay within 100 to 1000 nM.

With `Cc1ncsc1-c1ccc([C@H](C)NC(=O)[C@@H]2C[C@@H](O)CN2C(=O)[C@@H](NC(=O)CCCCCc2ccc(Cl)c(OC[C@H](CCC(N)=O)NC(=O)[C@@H]3Cc4cccc5c4N3C(=O)[C@@H](NC(=O)c3cc4cc(C(=O)P(=O)(O)O)ccc4[nH]3)CC5)c2)C(C)(C)C)cc1` [Compound I-200], the DC50 is more than 1000 nM.

On to `Cc1ncsc1-c1ccc([C@H](C)NC(=O)[C@@H]2C[C@@H](O)CN2C(=O)[C@@H](NC(=O)CCCCCc2ccc(F)c(OC[C@H](CCC(N)=O)NC(=O)[C@@H]3Cc4cccc5c4N3C(=O)[C@@H](NC(=O)c3cc4cc(C(=O)P(=O)(O)O)ccc4[nH]3)CC5)c2)C(C)(C)C)cc1` [Compound I-207], for which the DC50 was in the range of 100 to 1000 nM.

As for `Cc1ncsc1-c1ccc([C@H](C)NC(=O)[C@@H]2C[C@@H](O)CN2C(=O)[C@@H](NC(=O)OCCCCc2cccc(OC[C@H](CCC(N)=O)NC(=O)[C@@H]3Cc4cccc5c4N3C(=O)[C@@H](NC(=O)c3cc4cc(C(=O)P(=O)(O)O)ccc4[nH]3)CC5)c2F)C(C)(C)C)cc1` [Compound I-281], the DC50 is less than 10 nM.

Regarding `Cc1ncsc1-c1ccc(CNC(=O)[C@@H]2C[C@@H](O)CN2C(=O)[C@@H](NC(=O)Cc2cccc(-c3ccc(CO[C@H](C)[C@H](CCC(N)=O)NC(=O)[C@@H]4Cc5cccc6c5N4C(=O)[C@@H](NC(=O)c4cc5cc(C(=O)P(=O)(O)O)ccc5[nH]4)CC6)cc3)c2)C(C)(C)C)cc1` [Compound I-145, 2-[[(2S,11S)-2-[[(3S,4R)-1-carbamoyl-4-[[3'-([[(2S)-1-[(2S,4R)-4-hydroxy-2-([[4-(4-methyl-1,3-thiazol-5-yl)phenyl]methyl]carbamoyl)pyrrolidin-1-yl]-3,3-dimethyl-1-oxobutan-2-yl]carbamoyl]methyl)-[1,1'-biphenyl]-4-yl]methoxy]pentan-3-yl]carbamoyl]-12-oxo-1-azatricyclo[6.4.1.0^[4,13]]trideca-4(13),5,7-trien-11-yl]carbamoyl]-1H-indole-5-carbonylphosphonic acid], the DC50 was more than 1000 nM.

Take `Cc1ncsc1-c1ccc([C@H](C)NC(=O)[C@@H]2C[C@@H](O)CN2C(=O)[C@@H](NC(=O)CCCCc2cccc(NC(=O)[C@H](CCC(N)=O)NC(=O)[C@@H]3Cc4cccc5c4N3C(=O)C(CC(=O)c3cc4ccc(C(=O)P(=O)(O)O)cc4[nH]3)CC5)c2)C(C)(C)C)cc1` (stereo partly drawn) [Compound I-280]: the DC50 was in the range of 10 to 100 nM.

Take `Cc1ncsc1-c1ccc([C@H](C)NC(=O)[C@@H]2C[C@@H](O)CN2C(=O)[C@@H](NC(=O)CCCc2cccc(NC(=O)[C@H](CCC(N)=O)NC(=O)[C@@H]3Cc4cccc5c4N3C(=O)[C@@H](NC(=O)c3cc4cc(C(=O)P(=O)(O)O)ccc4[nH]3)CC5)c2)C(C)(C)C)cc1` [Compound I-248]: the DC50 was in the range of 10 to 100 nM.

Still in this experiment, the particulars now being: read-out: STAT3 HiBiT A549 degradation 24 h: Average external-Abs DC50; A549, 24 h.
For the compound `Cc1ncsc1-c1ccc([C@H](C)NC(=O)[C@@H]2C[C@@H](O)CN2C(=O)[C@@H](NC(=O)CCCCc2cccc(OC[C@H](CCC(N)=O)NC(=O)[C@@H]3CCCN3C(=O)[C@H](CC(C)C)NC(=O)c3cc4cc(C(=O)P(=O)(O)O)ccc4[nH]3)c2F)C(C)(C)C)cc1` [Compound I-276, diammonium 2-[[(2S)-1-[(2S)-2-[[(2S)-4-carbamoyl-1-[2-fluoro-3-(4-[[(2S)-1-[(2S,4R)-4-hydroxy-2-[[(1S)-1-[4-(4-methyl-1,3-thiazol-5-yl)phenyl]ethyl]carbamoyl]pyrrolidin-1-yl]-3,3-dimethyl-1-oxobutan-2-yl]carbamoyl]butyl)phenoxy]butan-2-yl]carbamoyl]pyrrolidin-1-yl]-4-methyl-1-oxopentan-2-yl]carbamoyl]-1H-indole-5-carbonylphosphonate], the DC50 is less than 10 nM.

`C[C@@H](OCc1ccc(Br)cc1)[C@H](CCC(N)=O)NC(=O)[C@@H]1CC[C@@H]2CCN(C(=O)CCCCCCc3ccc4c(c3)n(C)c(=O)n4C3CCC(=O)NC3=O)C[C@H](NC(=O)c3cc4cc(C(=O)P(=O)(O)O)ccc4[nH]3)C(=O)N21` (stereo partly drawn) [Compound I-183, 2-[[(5S,8S,10aR)-8-[[(3S,4R)-4-[(4-bromophenyl)methoxy]-1-carbamoylpentan-3-yl]carbamoyl]-3-[7-[1-(2,6-dioxopiperidin-3-yl)-3-methyl-2-oxo-1,3-benzodiazol-5-yl]heptanoyl]-6-oxo-octahydropyrrolo[1,2-a][1,5]diazocin-5-yl]carbamoyl]-1H-indole-5-carbonylphosphonic acid]: the DC50 fell in the range of 100 to 1000 nM.

As to `Cn1c(=O)n(C(CCC(N)=O)C(=O)O)c2ccc(C[C@H]3CC[C@@H](CC(=O)N4CC[C@H]5CC[C@@H](C(=O)N[C@@H](CCC(N)=O)C(=O)NC(c6ccccc6)c6ccccc6)N5C(=O)[C@@H](NC(=O)c5cc6cc(C(=O)P(=O)(O)O)ccc6[nH]5)C4)CC3)cc21` (stereo partly drawn) [Compound I-255, 4-carbamoyl-2-(3-methyl-2-oxo-5-[[(1s,4s)-4-[2-[(5S,8S,10aR)-8-[[(1S)-3-carbamoyl-1-(diphenylmethylcarbamoyl)propyl]carbamoyl]-6-oxo-5-[5-(phosphonocarbonyl)-1H-indole-2-amido]-octahydropyrrolo[1,2-a][1,5]diazocin-3-yl]-2-oxoethyl]cyclohexyl]methyl]-1,3-benzodiazol-1-yl)butanoic acid], the DC50 was more than 1000 nM.
